{"source": "patent US20240360185A1", "about": "“AV3 MUTANT INSECTICIDAL POLYPEPTIDES AND METHODS FOR PRODUCING AND USING SAME” (Vestaron Corporation, priority 2018, published 2024)", "key": {"[1]": {"tested_on": "houseflies (Musca domestica)", "test": "housefly injection assay", "format": "in vivo", "conditions": "for activities in fly injection assay / toxicity to houseflies by injection: in vivo; for lowest dose to produce knock-down activity: within the first 4 hours post injection; for recovery of the knock-down flies: 100 pmol/g dose; for lethal activity to houseflies: injection; for effect on housefly mortality: dose of 10, 50, and 100 nmol/g for 24 hours", "description": "An exemplary housefly injection bioassay is as follows: conditioned media is serially diluted to generate full dose-response curves from the housefly injection bioassay. Before injection, adult houseflies (Musca domestica) are immobilized with CO2, and 12-18 mg houseflies are selected for injection. A microapplicator, loaded with a 1 cc syringe and 30-gauge needle, is used to inject 0.5 μL per fly, doses of serially diluted conditioned media samples into houseflies through the body wall of the dorsal thorax. The injected houseflies are placed into closed containers with moist filter paper and breathing holes on the lids, and they are examined by knock-down ratio or by mortality scoring at 24 hours post-injection. Normalized yields are calculated. Peptide yield means the peptide concentration in the conditioned media in units of mg/L. However, peptide yields are not always sufficient to accurately compare the strain production rate. […] The cell density is represented by the light absorbance at 600 nm with a unit of “A” (Absorbance unit).\nA Housefly injection assay was performed to compare the activity of Av3b with GenScript Synthetic Av3b. FIG. 33. Adult houseflies were immobilized in CO2 for 10 minutes and then transferred to a CO2 pan to keep them immobilized. Flies with weight between 12-20 mg were picked for injection. The synthetic peptides were diluted in water to proper doses for injection. 0.5 μL peptide solution was injected into housefly at the dorsal thorax using a hand-microapplicator with 1 cc all-glass syringe with 30 gouge straight needle. The injected flies were then transferred to a 2 oz transparent portion container with a wet #4 filter paper. Fly score was accessed at 2 hour, 3 hour, 4 hour and 24 hour post-injection. […] Core-5 and Core-4 synthetic polypeptides were also evaluated in the housefly injection assay. FIG. 34. […] FIG. 36."}, "[2]": {"tested_on": "Aedes aegypti", "test": "adult mosquito topical bioassay", "format": "in vivo", "conditions": "for Knock-down 50 at 3 hr, Average: Table 5; for Knock-down 50 at 3 hr: Table 5, single determinations; for paralysis and kill of adult mosquitos upon topical application: in vivo; for synergy with permethrin: permethrin 500 ppb; for KD50 at 3-hours: post topical application; for activity relative to native Av3: 3 hours post application", "description": "Native Av3, R1K mutant Av3 (Av3a) and R1K+AC-Val double mutant Av3 (Av3a-C1, or Av3b) were evaluated in the adult mosquito topical bioassay. The adult mosquitoes were ordered from Benzon Research. The adult mosquitoes were immobilized using CO2 gas and transferred onto a CO2 pad with CO2 flowing to keep them immobilized during topical applications. A hand microapplicator equipped with 1 cc glass syringe with a 30 gouge straight needle was used for the application of droplet. 0.25 μl droplet of toxin solution per mosquito was pushed out from the needle and gently applied to the ventral side of the mosquito abdomen. The treated mosquitoes were put into a 2.5 oz. clear cup with moisture filter paper and lid with breathing holes. Score the treated mosquitoes for paralysis or death within 24 hours post-application. […] FIG. 13."}, "[3]": {"test": "incubation of purified peptide in fermentation beer with untransformed K. lactis", "format": "physicochemical", "conditions": "8 days at room temperature", "description": "The pLB102-YCT-18 strain's apparent expression of two Av3+2 peptides, i.e., Av3+2 and Av3+2−C1, raised the question as to whether the C-Val cleavage observed in Peak 1 (SEQ ID NO: 19) occurred during peptide expression and secretion, or whether it occurred in the spent medium/fermentation beer as a result of endogenous proteases secreted from K. lactis. To answer this question, Av3+2 peptide was purified according to the abovementioned methods, and incubated with the fermentation beer in concert with untransformed K. lactis strain (i.e., a null strain) for 8 days at room temperature (RT). FIG. 4."}, "[4]": {"tested_on": "houseflies", "test": "housefly feeding assay (oral toxicity)", "format": "in vivo", "description": "The oral toxicity of Av3+2−C1 peptide was evaluated in the housefly feeding assay by mixing 20 PPT Av3+2−C1 with fly food (1:1 sugar: dry milk) and observed for 96 hours. Knock-down and dead flies were observed starting at 24-hour post-feeding and accumulated with time. FIG. 19. Unlike the housefly injection bioassay, recovery from paralysis in the feeding assay was not observed, likely due to the fact that the houseflies were continuously dosed in the later bioassay. FIG. 20."}, "[5]": {"tested_on": "crustacean and insect sodium channels", "conditions": "cited from earlier work"}, "[6]": {"conditions": "Table 9, synthetic polypeptides"}, "[7]": {"conditions": "1000 pmol/g dose, overnight observation"}}, "note": "Several values for one entry are separate records, joined by “and”; a condition that tells them apart may be missing. Equal entries are not always repeated. Entries after “also recorded” stand apart in the source; their conditions may differ. Ends that are not written are not given here."}
{"substance": "KSCCPCYWGGCPWGQNCYPEGCSGPK [Synthetic Av3b]", "values": [{"measurement": "KD50 at 3 hr", "setting": "[1]; Table 8, synthetic peptide", "result": 633.02, "unit": "pmol/g"}, {"measurement": "KD50 at 3 hr", "setting": "[1]; [6]", "result": 540, "unit": "pmol/g"}, {"measurement": "activities in fly injection assay", "setting": "[1]", "result": "showed activities in fly injection assay"}]}
{"substance": "GSRSCCPCYWGGCPWGQNCYPEGCSGPKV (not fully specified; ends and bridges not checked) [Av3+2]", "values": [{"measurement": "Knock-down 50 at 3 hr, Average", "setting": "[2]", "result": 281.5, "unit": "ppm"}, {"measurement": "Knock-down 50 at 3 hr", "setting": "[2]", "result": "230 ppm and 235.7 ppm and 347.7 ppm and 312.6 ppm"}, {"measurement": "KD50 relative to that observed for native Av3", "setting": "[2]; at 3-hours", "result": "roughly 5 fold"}, {"measurement": "paralysis and kill of adult mosquitos upon topical application", "setting": "[2]", "result": "fast paralyze and eventually kill adult mosquitoes"}, {"measurement": "synergy with permethrin", "setting": "[2]; peptide 200 ppm", "result": "some synergy"}, {"measurement": "KD50 at 3-hours", "setting": "[2]", "result": "235.71 ppm and 312.57 ppm and 200-300 ppm and 229.9 ppm"}, {"measurement": "recovery after maximum knock-down", "setting": "[2]; topical application", "result": "limited recovery thereafter; also recorded: recovery observed over time; also recorded: not much recovery effects observed thereafter"}, {"measurement": "C-Val cleavage / stability", "setting": "[3]", "result": "did not result in any apparent C-Val cleavage"}, {"measurement": "recovery of knock-down flies", "setting": "[1]; [7]", "result": "Recovery of the knock-down flies was observed"}, {"measurement": "recovery of knock-down flies", "setting": "[1]; 5000 and 20000 pmol/g doses", "result": "No recovery was observed"}, {"measurement": "paralysis effect in combination with fermentation beer from AaIT1 expression K. lactis strain", "setting": "[1]; Av3+2 peptide at 500 pmol/g dose", "result": "synergistic instead of additive paralysis effect"}, {"measurement": "KD50 at 4-hours", "setting": "[1]; housefly injection", "result": 490, "unit": "pmol/g"}, {"measurement": "toxicity to houseflies by injection", "setting": "[1]", "result": "toxic to houseflies"}, {"measurement": "lowest dose to produce knock-down activity", "setting": "[1]", "result": 100, "unit": "pmol/g"}]}
{"substance": "KSCCPCYWGGCPWGQNCYPEGCSGPK [Av3b]", "values": [{"measurement": "activity relative to native Av3", "setting": "[2]; listed as Av3a-C1", "result": "two-fold less active; also recorded: about twice as less active"}, {"measurement": "Knock-down 50 at 3 hr, Average", "setting": "[2]", "result": 81.63, "unit": "ppm"}, {"measurement": "Knock-down 50 at 3 hr", "setting": "[2]; listed as Av3a-C1", "result": "86.9 ppm and 86.1 ppm and 71.9 ppm"}, {"measurement": "KD50 at 3-hours", "setting": "[2]", "result": 71.9, "unit": "ppm"}, {"measurement": "KD50 at 3 hr", "setting": "[1]; Table 8, AAA Calibrate stock at 32.5 mg/mL", "result": 172.22, "unit": "pmol/g"}, {"measurement": "KD50 at 3 hr", "setting": "[1]; Table 8, non-AAA stock at 50 mg/mL", "result": 265.21, "unit": "pmol/g"}]}
{"substance": "RSCCPCYWGGCPWGQNCYPEGCSGPK (ends and bridges not checked; cysteine pairing not given here) [Av3-C1]", "values": [{"measurement": "recovery of the knock-down flies", "setting": "[1]; overnight observation", "result": "very rare"}, {"measurement": "KD50 at 4-hours", "setting": "[1]; housefly injection", "result": 521, "unit": "pmol/g"}, {"measurement": "lethal activity to houseflies", "setting": "[1]", "result": "no potent lethal activity"}]}
{"substance": "KPYWPWYKV (Pharmacophore mutant) [Core-2]", "values": [{"measurement": "effect on housefly mortality", "setting": "[1]", "result": "did not appear to have an effect on housefly mortality"}]}
{"substance": "KACCPCYWAACPWAAACYAAACAAAK (Pharmacophore mutant) [Core 4]", "values": [{"measurement": "activities in fly injection assay", "setting": "[1]", "result": "dramatically reduced activities"}]}
{"substance": "KACCPCYWGGCPWGAACYPAGCAAAK (Pharmacophore mutant) [Core 5]", "values": [{"measurement": "KD50 at 3 hr", "setting": "[1]; [6]", "result": 1621, "unit": "pmol/g"}, {"measurement": "activity reduced", "setting": "[1]; housefly injection", "result": "around 3 fold"}]}
{"substance": "KSCCPCYWGGCPWGQNCYPEGCSGPKV [Av3a]", "values": [{"measurement": "activity relative to native Av3", "setting": "[2]", "result": "the same as native Av3"}, {"measurement": "Knock-down 50 at 3 hr, Average", "setting": "[2]", "result": 109.05, "unit": "ppm"}, {"measurement": "KD50 at 3-hours", "setting": "[2]", "result": 38.8, "unit": "ppm"}]}
{"substance": "PYWPWY (Pharmacophore mutant) [Core-1]", "values": [{"measurement": "effect on housefly mortality", "setting": "[1]", "result": "did not appear to have an effect on housefly mortality"}]}
{"substance": "KPYWPWYK (Pharmacophore mutant) [Core-3]", "values": [{"measurement": "effect on housefly mortality", "setting": "[1]", "result": "did not appear to have an effect on housefly mortality"}]}
{"substance": "GSRSCCPCYWGGCPWGQNCYPEGCSGPK (ends and bridges not checked; cysteine pairing not given here) [Av3+2−C1]", "values": [{"measurement": "Knock-down 50 at 3 hr, Average", "setting": "[2]", "result": 747.9, "unit": "ppm"}, {"measurement": "Knock-down 50 at 3 hr", "setting": "[2]", "result": "952.7 ppm and 543.1 ppm"}, {"measurement": "paralysis and kill of adult mosquitos upon topical application", "setting": "[2]", "result": "fast paralyze and eventually kill adult mosquitoes"}, {"measurement": "KD50 at 3-hours", "setting": "[2]", "result": "543.12 ppm and 500-900 ppm and 952.69 ppm"}, {"measurement": "recovery after maximum knock-down", "setting": "[2]; topical application", "result": "recovery was observed thereafter"}, {"measurement": "knock-down and dead flies first observed post-feeding", "setting": "[4]; 20 PPT mixed with fly food", "result": 24, "unit": "h"}, {"measurement": "oral toxicity to houseflies", "setting": "[4]; 20 PPT mixed with fly food, observed for 96 hours", "result": "toxic to houseflies when consumed and/or upon oral contact"}, {"measurement": "recovery from paralysis", "setting": "[4]; continuous feeding, 20 PPT", "result": "not observed"}, {"measurement": "recovery of knock-down flies", "setting": "[1]; [7]", "result": "Recovery of the knock-down flies was observed"}, {"measurement": "recovery of knock-down flies", "setting": "[1]; 5000 and 20000 pmol/g doses", "result": "No recovery was observed"}, {"measurement": "KD50 at 4-hours", "setting": "[1]; housefly injection", "result": 651, "unit": "pmol/g"}, {"measurement": "lowest dose to produce knock-down activity", "setting": "[1]", "result": 500, "unit": "pmol/g"}]}
{"substance": "RSCCPCYWGGCPWGQNCYPEGCSGPKV [Av3, reference compound]", "values": [{"measurement": "Knock-down 50 at 3 hr, Average", "setting": "[2]", "result": 45.98, "unit": "ppm"}, {"measurement": "synergy with permethrin", "setting": "[2]", "result": "some synergy"}, {"measurement": "KD50 at 3-hours", "setting": "[2]; listed as Native Av3", "result": "58 ppm and 42.6 ppm"}, {"measurement": "recovery after maximum knock-down", "setting": "[2]; topical application", "result": "no obvious recovery observed thereafter"}, {"measurement": "time at which knock-down effect reached its maximum", "setting": "[2]; topical application", "result": 1, "unit": "h"}, {"measurement": "selectivity for crustacean and insect sodium channels", "setting": "[5]", "result": "high selectivity"}, {"measurement": "recovery of the knock-down flies", "setting": "[1]; overnight observation", "result": "very rare"}, {"measurement": "KD50 at 4-hours", "setting": "[1]; housefly injection", "result": 606, "unit": "pmol/g"}, {"measurement": "toxicity to houseflies by injection", "setting": "[1]", "result": "toxic to houseflies"}, {"measurement": "lethal activity to houseflies", "setting": "[1]", "result": "no potent lethal activity"}]}
